# Several values for one entry are separate records, joined by “and”; a condition that tells them apart may be missing. Identical values can stand only once. Like-named read-outs stand apart in the source and are kept apart here.
# Key:
# HDAC7 = HDAC7 (Homo sapiens (Human), UniProt Q8WUI4); experiment: Caliper HDAC enzymatic endpoint assay, HDAC7; type: biochemical; details: Table 2C; read-out: HDAC7 IC50 after 0 hr preincubation
# Procedure: (§1) The Caliper HDAC Assay Buffer (acronym HAB, 1 liter) was prepared as follows:
# (§2) Substrate B was prepared as 2 mM in 100% DMSO. Its final concentration in the assay for HDACs 4, 5, 7, 8, 9 is 2 μM.
# (§3) LBH was used as quench inhibitor to stop the reaction at the end point.
# IC50 values are in micromolar.
# HDAC8 = HDAC8 (Homo sapiens (Human), UniProt Q9BY41); experiment: Caliper HDAC enzymatic endpoint assay, HDAC8; type: biochemical; details: Table 2C; read-out: HDAC8 IC50 after 0 hr preincubation
# Procedure: as §1, §2, §3
# IC50 values are in micromolar.
# HDAC3 [1] = biological target: T1, HDAC3 (Homo sapiens (Human), UniProt O15379); experiment: Caliper HDAC enzymatic endpoint assay, HDAC3; type: biochemical
# Procedure: Substrate A was prepared as 2 mM in DMSO. Its final concentration in the assay for HDACs 1, 2, 3, 6 is 2 μM.
# Below is the HDAC and Substrate concentration used in this assay.
# [2] = Fear conditioning assay in normal animals; type: in vivo; details: wild type normal mouse, single dose
# Description: In one aspect, the invention provides methods and compositions for promoting cognitive function and enhancing learning and memory formation in both normal subjects as well as those suffering from memory loss and cognitive function disorders/impairments. […] A normal subject, as used herein, is a subject that has not been diagnosed with a disorder associated with impaired cognitive function. “Cognitive function” refers to mental processes of a subject relating to information gathering and/or processing; the understanding, reasoning, and/or application of information and/or ideas; the abstraction or specification of ideas and/or information; acts of creativity, problem-solving, and possibly intuition; and mental processes such as learning, perception, and/or awareness of ideas and/or information. The mental processes are distinct from those of beliefs, desires, and the like.
# [3] = Brain and plasma concentration in mice; type: in vivo; details: for half-life: mouse, other: injected (site of injection not given)
# Procedure: Specifically, mice were injected with a single dose of compound and the concentration of compound was measured in the brain and plasma of mice at 8 time points. The samples were analyzed by LC-MS/MS.
# Human islets = experiment: Glucolipotoxicity-induced apoptosis in human islets, caspase-3 activity assay; type: cell-based; details: 10 μM, 0.5 mM palmitate and 25 mM glucose, 72 h
# Description: Human islets were provided by the Integrated Islet Distribution Program administered by the City of Hope Hospital (IIDP: http://iidp.coh.org/). The average reported purity was 85%±5.2 and viability was 94%±0.6 (age 50±5 years, body mass index 31±2.7 kg/m2). Causes of death were head trauma (n=3), stroke and anoxia. Islets were dissociated and seeded (30,000 cells/well) into black optical 96-well plates (Corning Life Sciences) that coated with HTB-9 extracellular matrix as previously described. (Walpita, D., et al. (2012) J. Biomol. Screen. 17, 509-518.) The dissociated islet cell cultures were allowed to attach and grow in CMRL media in 10% FBS for 3 days before exposure to palmitate (0.5 mM) and high glucose (25 mM) in medium with 1% BSA and without FBS for 72 hours.
# Compounds of the invention protect against combined palmitate and high glucose induced apoptosis in INS-1E cells. […] Apoptosis was measured by caspase-3 activity assay.
# HDAC5 = HDAC5 (Homo sapiens (Human), UniProt Q9UQL6); experiment: Caliper HDAC enzymatic endpoint assay, HDAC5; type: biochemical; details: Table 2C; read-out: HDAC5 IC50 after 0 hr preincubation
# Procedure: as §1, §2, §3
# IC50 values are in micromolar.
# HDAC3 [4] = biological target: T1, HDAC3; experiment: Kinetics of the inhibition of HDAC3
# HDAC1 = HDAC1 (Homo sapiens (Human), UniProt Q13547); experiment: Kinetics of the inhibition of HDAC1; details: for T1/2: HDAC1 residence
# Procedure: HDAC1 inactivation kinetic constant was determined by curve-fitting of the plot to a first-order rate equation.
# INS-1E cells = experiment: Cytokine-induced beta-cell apoptosis, caspase-3 activity assay; type: cell-based, rat
# Procedure: Compounds of the invention were evaluated for their ability to suppress cytokine-induced beta-cell apoptosis and palmitate and/or glucose-induced beta-cell apoptosis by inhibition of HDAC3. Assay protocols were as follows: Cell culture and reagents. […] Recombinant IL-1β, IFN-γ, and TNF-α were purchased from R&D Systems. Palmitate, D-glucose and fatty acids-free low endotoxin BSA were purchased from Sigma. Palmitate was solubilized in 90% ethanol, heated to 60° C. and used 1:100 dilution in media. Caspase-Glo 3/7 was from Promega and 3-(4,5-dimethylthiazol-2-yl)-2,5-diphenyltetrazolium bromide (MTT) was from Calbiochem. Antibodies for HDAC1, HDAC2, HDAC3, pJNK, JNK cleaved caspase-9 and secondary horseradish-peroxidase conjugated goat anti-mouse and anti-rabbit antibodies were from Cell Signaling. Antibody for beta-actin was from Sigma and antibody against CHOP (GADD153) from Abcam. HDAC inhibitors were purchased from Selleck Chemicals or synthesized in-house. Primers were from Integrated DNA Technologies, High Capacity cDNA RT kit and SYBR green master mix were purchased from Applied Biosystems. INS-1E cells were seeded at 5,000 cells/well using a Multidrop Combi (Thermo Labsystems) in white optical 384-well plates (Corning Life Sciences). After overnight incubation, medium was removed and 50 μL RPMI containing the treated compound, 1% FBS and either a combination of cytokines (10 ng/mL IL-1β, 50 ng/mL IFN-γ, 25 ng/mL TNF-α) or 0.5 mM sodium palmitate was added to every well. After two-day treatment, medium was removed and 20 μL Caspase-Glo 3/7 reagent was added. Luminescence was measured after a two-hour incubation using an Envision plate reader (PerkinElmer). […] The rat INS-1E cell line was simultaneously treated for 48 hours with a combination of pro-inflammatory cytokines IL-1β, IFN-γ, and TNF-α, and the indicated test compounds. […] Compound 9, a negative control, had no effect. […] FIGS. 9C and 9D show a dose-response analysis of HDAC inhibition in suppression of cytokine-induced beta-cell apoptosis. […] This could translate to a larger therapeutic window. […]
# [5] = mice, single dose, Repligen 136 30 mg/kg, Compound 1 10 mg/kg
# Sequence of HDAC1 (Q13547 whole entry): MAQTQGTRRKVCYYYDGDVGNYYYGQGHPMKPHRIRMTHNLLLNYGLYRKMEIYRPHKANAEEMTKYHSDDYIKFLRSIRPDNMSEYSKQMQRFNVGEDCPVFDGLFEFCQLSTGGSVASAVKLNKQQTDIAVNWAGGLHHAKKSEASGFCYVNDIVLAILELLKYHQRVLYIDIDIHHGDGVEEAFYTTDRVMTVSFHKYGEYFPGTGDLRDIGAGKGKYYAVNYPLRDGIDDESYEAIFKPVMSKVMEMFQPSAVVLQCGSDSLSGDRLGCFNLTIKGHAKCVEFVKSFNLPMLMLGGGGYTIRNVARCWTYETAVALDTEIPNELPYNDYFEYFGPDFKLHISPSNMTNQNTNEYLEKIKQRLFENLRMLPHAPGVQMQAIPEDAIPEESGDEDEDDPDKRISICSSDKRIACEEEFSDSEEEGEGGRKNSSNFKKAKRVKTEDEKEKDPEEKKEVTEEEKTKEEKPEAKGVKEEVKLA
# T1 sequence (O15379 whole entry): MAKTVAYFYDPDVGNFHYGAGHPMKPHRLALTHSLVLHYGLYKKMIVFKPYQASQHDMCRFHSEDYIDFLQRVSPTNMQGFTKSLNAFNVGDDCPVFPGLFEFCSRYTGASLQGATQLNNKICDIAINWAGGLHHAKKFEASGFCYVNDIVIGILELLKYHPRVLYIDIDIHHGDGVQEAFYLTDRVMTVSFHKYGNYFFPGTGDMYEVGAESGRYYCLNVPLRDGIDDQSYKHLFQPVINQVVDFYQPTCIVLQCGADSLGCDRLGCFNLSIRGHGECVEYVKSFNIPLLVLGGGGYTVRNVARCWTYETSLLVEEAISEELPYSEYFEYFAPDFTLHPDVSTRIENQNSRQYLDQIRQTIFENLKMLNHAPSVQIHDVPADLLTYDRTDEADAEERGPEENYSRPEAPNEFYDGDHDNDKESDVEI
# T1 sequence (Q9Y618 395-489 partner): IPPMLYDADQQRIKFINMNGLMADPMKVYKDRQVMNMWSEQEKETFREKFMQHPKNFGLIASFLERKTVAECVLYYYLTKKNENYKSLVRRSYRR
# Sequence of HDAC5 (Q9UQL6 whole entry): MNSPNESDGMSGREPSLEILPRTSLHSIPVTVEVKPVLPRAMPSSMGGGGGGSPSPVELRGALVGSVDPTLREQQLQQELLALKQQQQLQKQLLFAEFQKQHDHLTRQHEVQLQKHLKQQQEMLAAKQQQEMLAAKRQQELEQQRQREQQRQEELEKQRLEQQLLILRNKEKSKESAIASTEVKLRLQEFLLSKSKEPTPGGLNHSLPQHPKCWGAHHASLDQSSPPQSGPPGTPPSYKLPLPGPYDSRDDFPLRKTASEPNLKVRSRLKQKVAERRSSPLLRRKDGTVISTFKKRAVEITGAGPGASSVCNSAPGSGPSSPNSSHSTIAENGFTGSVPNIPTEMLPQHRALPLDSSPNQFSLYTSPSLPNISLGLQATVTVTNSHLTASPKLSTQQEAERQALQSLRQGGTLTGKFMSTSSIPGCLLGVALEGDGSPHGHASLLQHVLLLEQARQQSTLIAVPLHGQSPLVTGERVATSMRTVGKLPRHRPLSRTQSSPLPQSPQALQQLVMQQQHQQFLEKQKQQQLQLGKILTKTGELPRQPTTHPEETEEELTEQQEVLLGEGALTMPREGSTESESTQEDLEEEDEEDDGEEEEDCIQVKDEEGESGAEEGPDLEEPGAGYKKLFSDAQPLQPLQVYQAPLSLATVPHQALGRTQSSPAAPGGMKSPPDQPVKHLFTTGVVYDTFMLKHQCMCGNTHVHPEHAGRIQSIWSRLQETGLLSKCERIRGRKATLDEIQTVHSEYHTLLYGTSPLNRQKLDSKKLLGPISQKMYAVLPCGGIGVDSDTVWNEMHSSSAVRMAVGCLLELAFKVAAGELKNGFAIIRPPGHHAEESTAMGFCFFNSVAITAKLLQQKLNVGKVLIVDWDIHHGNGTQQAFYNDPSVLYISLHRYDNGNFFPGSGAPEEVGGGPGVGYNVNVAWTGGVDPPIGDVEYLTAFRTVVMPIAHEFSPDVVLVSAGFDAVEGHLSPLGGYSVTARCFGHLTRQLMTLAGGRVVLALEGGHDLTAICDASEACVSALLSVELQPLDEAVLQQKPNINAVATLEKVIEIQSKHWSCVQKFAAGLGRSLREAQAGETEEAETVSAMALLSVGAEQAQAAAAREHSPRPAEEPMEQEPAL
# Sequence of HDAC8 (Q9BY41 whole entry): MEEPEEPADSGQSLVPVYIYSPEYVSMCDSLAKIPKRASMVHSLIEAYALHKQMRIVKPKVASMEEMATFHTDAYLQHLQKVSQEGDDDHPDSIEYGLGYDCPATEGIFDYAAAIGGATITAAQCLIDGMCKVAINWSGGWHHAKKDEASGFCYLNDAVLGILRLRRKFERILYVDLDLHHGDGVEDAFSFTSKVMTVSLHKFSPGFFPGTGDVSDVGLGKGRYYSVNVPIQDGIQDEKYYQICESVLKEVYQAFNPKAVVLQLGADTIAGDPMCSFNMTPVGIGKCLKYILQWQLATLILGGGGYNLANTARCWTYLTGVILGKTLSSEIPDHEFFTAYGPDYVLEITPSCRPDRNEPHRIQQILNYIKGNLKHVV
# Sequence of HDAC7 (Q8WUI4 whole entry): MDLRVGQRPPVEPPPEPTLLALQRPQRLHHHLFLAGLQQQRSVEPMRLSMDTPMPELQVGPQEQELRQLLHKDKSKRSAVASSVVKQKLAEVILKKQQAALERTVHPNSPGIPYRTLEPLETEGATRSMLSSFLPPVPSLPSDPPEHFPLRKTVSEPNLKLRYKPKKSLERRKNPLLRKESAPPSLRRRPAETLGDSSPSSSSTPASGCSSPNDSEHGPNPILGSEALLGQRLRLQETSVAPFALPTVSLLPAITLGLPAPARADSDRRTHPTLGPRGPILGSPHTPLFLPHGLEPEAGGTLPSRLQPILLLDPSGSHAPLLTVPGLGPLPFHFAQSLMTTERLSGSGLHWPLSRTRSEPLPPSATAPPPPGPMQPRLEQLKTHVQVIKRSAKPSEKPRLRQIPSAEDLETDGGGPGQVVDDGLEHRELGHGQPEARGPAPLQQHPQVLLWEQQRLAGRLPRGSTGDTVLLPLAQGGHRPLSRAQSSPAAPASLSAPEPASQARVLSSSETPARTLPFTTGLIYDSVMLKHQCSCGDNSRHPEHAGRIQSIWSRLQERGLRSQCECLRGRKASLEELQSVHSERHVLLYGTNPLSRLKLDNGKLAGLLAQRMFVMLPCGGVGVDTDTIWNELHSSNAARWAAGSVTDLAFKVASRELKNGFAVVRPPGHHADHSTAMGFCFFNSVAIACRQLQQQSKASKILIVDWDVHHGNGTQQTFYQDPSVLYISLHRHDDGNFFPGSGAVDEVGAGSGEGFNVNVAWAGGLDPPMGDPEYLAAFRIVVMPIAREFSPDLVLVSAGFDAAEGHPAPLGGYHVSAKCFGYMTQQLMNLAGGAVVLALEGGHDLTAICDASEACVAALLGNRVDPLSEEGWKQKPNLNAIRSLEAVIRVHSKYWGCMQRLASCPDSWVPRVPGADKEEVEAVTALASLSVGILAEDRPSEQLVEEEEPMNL
smiles,measurement,setting,value
"CC(=O)Nc1ccc(C(=O)Nc2ccc(F)cc2N)cc1 [Compound 1, 4-acetamido-N-(2-amino-4-fluorophenyl)benzamide]",IC50,HDAC7,> 33000 nM
same,IC50,HDAC8,> 33000 nM
same,more potent inhibitor of HDAC3 than compounds 3 and 4,"HDAC3 [1]; IC50, 3 h preincubation",5-10 times
same,IC50,"HDAC3 [1]; read-out: HDAC3 IC50 3 h Prein, Table 2, 3 h preincubation",68 nM
same,IC50,"HDAC3 [1]; read-out: HDAC3 IC50 3 h Preinc, Table 2A, 3 h preincubation",68 nM
same,IC50,"HDAC3 [1]; read-out: HDAC3 IC50 @3 hr, 3 hr preincubation",68 nM
same,effect in fear conditioning assay,[2],no effect was observed
same,better brain exposure in comparison to Repligen 136 as measured by Cmax,[3]; dose normalized,30 times
same,better brain exposure in comparison to Repligen 136 measured by AUC,[3]; dose normalized,120 times
same,AUC Brain,[3]; [5],12.77 µM·h
same,Cmax Brain,[3]; [5],3.80 µM
same,concentration in the brain over time,[3]; [5],still present in the brain after 8 hours
same,half-life,"[3]; brain, read-out: T1/2 Brain (converted)",2.06 h
same,half-life,"[3]; plasma, read-out: T1/2 Plasma (converted)",2.26 h
same,better plasma exposure as measured by AUC than Repligen 136,[3]; plasma,30 times
same,glucolipotoxicity-induced apoptosis in human islets,Human islets,decreases glucolipotoxicity-induced apoptosis in human islets
same,IC50,HDAC5,> 33000 nM
same,koff,HDAC3 [4],0.000147 s⁻¹
same,Ki,HDAC3 [4]; HDAC3,29 nM
same,Kon,HDAC3 [4]; HDAC3,"0.30 min^−1, uM^−1 and 0.3 min^−1, uM^−1"
same,koff,HDAC3 [4]; HDAC3,0.000147 s⁻¹
same,type of binding to HDAC3 (words),HDAC3 [4]; HDAC3,"slow, tight-binding inhibitor"
same,type of binding to HDAC3 (words),"HDAC3 [4]; HDAC3, listed as compound 1",fast on/slow off binding
same,T1/2,HDAC3 [4]; HDAC3 residence,1.32 h
same,binding selectivity (Ki) for HDAC3 versus HDAC1,HDAC3 [4]; thermodynamic (Ki),175 fold
same,binding selectivity (Ki) for HDAC3 versus HDAC2,HDAC3 [4]; thermodynamic (Ki),217 fold
same,koff,HDAC1,~0.0045 s⁻¹
same,Kon,HDAC1; HDAC1,"~0.020 min^−1, uM^−1"
same,koff,HDAC1; HDAC1,~0.0045 s⁻¹
same,type of binding to HDAC1 (words),HDAC1; HDAC1,fast off inhibitor
same,type of binding to HDAC1 (words),"HDAC1; HDAC1, listed as compound 1",slow on/fast off rates
same,T1/2,HDAC1,~2.5 min
same,T1/2,HDAC1; listed as compound 1,2.5 min
same,Ki,"HDAC1; Ki, HDAC1, inhibition kinetics",~14000 nM and 14000 nM
same,suppression of cytokine-induced beta-cell apoptosis (caspase activity),"INS-1E cells; IL-1β, IFN-γ, TNF-α, 48 hours, 5 μM compound",as effective at suppressing cyctokine-induced beta-cell apoptosis as CI-994
same,"suppression of caspase-3 activity, comparison of compounds","INS-1E cells; cytokines, 0.1-10 μM, dose dependent",more effective at suppressing caspase-3 activity

# Source: patent US11377423B2, “Inhibitors of histone deacetylase” (The Broad Institute, Inc., priority 2012, dated 2022)
